# In patent US20230219906A1, “MACROCYCLIC-2-AMINO-3-FLUORO-BUT-3-ENAMIDES AS INHIBITORS OF MCL-1” (Janssen Pharmaceutica NV, priority 2020, published 2023):
# Read-outs that look alike come from different tables or passages of the source.
# Key:
# [1] = tested on: MOLP-8 human multiple myeloma cell line; assay: Caspase-Glo 3/7 apoptosis induction assay in MOLP-8 cells; assay type: cell-based; details: caspase-3/7 activity, 2 hours at 37° C., averaged over all runs on all batches, read-out: MOLP8 AC50
# Text: MCL-1 is a regulator of apoptosis and is highly over-expressed in tumor cells that escape cell death. The assay evaluates the cellular potency of small-molecule compounds targeting regulators of the apoptosis pathway, primarily MCL-1, Bfl-1, Bcl-2, and other proteins of the Bcl-2 family. Protein-protein inhibitors disrupting the interaction of anti-apoptotic regulators with BH3-domain proteins initiate apoptosis.
# The Caspase-Glo® 3/7 Assay is a luminescent assay that measures caspase-3 and −7 activities in purified enzyme preparations or cultures of adherent or suspension cells. The assay provides a proluminescent caspase-3/7 substrate, which contains the tetrapeptide sequence DEVD. This substrate is cleaved to release aminoluciferin, a substrate of luciferase used in the production of light. Addition of the single Caspase-Glo® 3/7 Reagent in an “add-mix-measure” format results in cell lysis, followed by caspase cleavage of the substrate and generation of a “glow-type” luminescent signal.
# This assay uses the MOLP-8 human multiple myeloma cell line, which is sensitive to MCL-1 inhibition.
# Cell cultures were maintained between 0.2 and 2.0×10^6 cells/mL. The cells were harvested by collection in 50 mL conical tubes. The cells were then pelleted at 500 g for 5 mins before removing supernatant and resuspension in fresh pre-warmed culture medium. The cells were counted and diluted as needed.
# The assay reagent was prepared by transferring the buffer solution to the substrate vial and mixing. The solution may be stored for up to 1 week at 4° C. with negligible loss of signal.
# Compounds were delivered in assay-ready plates (Proxiplate) and stored at −20° C. Assays always include 1 reference compound plate containing reference compounds. The plates were spotted with 40 nL of compounds (0.5% DMSO final in cells; serial dilution; […] highest conc. 1/3 dilution, 10 doses, duplicates). The compounds were used at room temperature and 4 μL of pre-warmed media was added to all wells except column 2 and 23. The negative control was prepared by adding 1% DMSO in media. The positive control was prepared by adding the appropriate positive control compound in final concentration of […] in media. The plate was prepared by adding 4 μL negative control to column 23, 4 μL positive control to column 2 and 4 μL cell suspension to all wells in the plate. The plate with cells was then incubated at 37° C. for 2 hours. The assay signal reagent is the Caspase-Glo solution described above, and 8 μL was added to all wells. The plates were then sealed and measured after 30 minutes.
# The activity of a test compound was calculated as percent change in apoptosis induction as follows:
# % Effect (AC50)=100−(sample-LC)/(HC-LC)*100
# % Control=(sample/HC)*100
# % Control min=(sample-LC)/(HC-LC)*100
# [2] = biological target: Myeloid Cell Leukemia 1(Mcl-1) (Homo sapiens, UniProt Q07820); assay: Terbium labeled Mcl-1 HTRF binding assay with Cy5-labeled BIM BH3 peptide; details: displacement of Cy5 Bim BH3 peptide; Ki=IC50/(1+[L]/Kd), [L]=8 nM, Kd=10 nM; 60 minutes at room temperature; read-out: Tb-MCL1 Ki
# Chain of Myeloid Cell Leukemia 1(Mcl-1) (Q07820 whole entry): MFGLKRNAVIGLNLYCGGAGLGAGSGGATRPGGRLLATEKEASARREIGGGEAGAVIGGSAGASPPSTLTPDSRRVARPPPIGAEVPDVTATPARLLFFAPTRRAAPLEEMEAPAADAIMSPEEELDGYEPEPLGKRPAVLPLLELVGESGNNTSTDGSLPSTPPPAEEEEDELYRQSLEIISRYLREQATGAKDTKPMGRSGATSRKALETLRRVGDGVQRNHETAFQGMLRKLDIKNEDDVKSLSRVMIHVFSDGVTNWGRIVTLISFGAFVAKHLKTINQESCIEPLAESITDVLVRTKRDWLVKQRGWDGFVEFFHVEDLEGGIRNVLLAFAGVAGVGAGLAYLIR
# Description: Terbium labeled Myeloid Cell Leukemia 1(Mcl-1) homogeneous time-resolved fluorescence (HTRF) binding assay utilizing the BIM BH3 peptide (H2N—(C/Cy5Mal) WIAQELRRIGDEFN-OH) as the binding partner for Mcl-1.
# This assay evaluated inhibition of the BH3 domain: Mcl-1 interaction by measuring the displacement of Cy5-labeled BIM BH3 peptide (H2N—(C/Cy5Mal) WIAQELRRIGDEFN-OH) in the HTRF assay format.
# The following assay and stock buffers were prepared for use in the assay: (a) Stock buffer: 10 mM Tris-HCl, pH=7.5+150 mM NaCl, filtered, sterilized, and stored at 4° C.; and (b) 1X assay buffer, where the following ingredients were added fresh to stock buffer: 2 mM dithiothreitol (DTT), 0.0025% Tween-20, 0.1 mg/mL bovine serum albumin (BSA). The 1X Tb-Mcl-1+Cy5 Bim peptide solution was prepared by diluting the protein stock solution using the 1X assay buffer (b) to 25 pM Tb-Mcl-1 and 8 nM Cy5 Bim peptide.
# Using the Acoustic ECHO, 100 nL of 100x test compound(s) were dispensed into individual wells of a white 384-well Perkin Elmer Proxiplate, for a final compound concentration of 1× and final DMSO concentration of 1%. Inhibitor control and neutral control (NC, 100 nL of 100% DMSO) were stamped into columns 23 and 24 of assay plate, respectively. Into each well of the plate was then dispensed 10 μL of the 1X Tb-Mcl-1+Cy5 Bim peptide solution. The plate was centrifuged with a cover plate at 1000 rpm for 1 minute, then incubated for 60 minutes at room temperature with plates covered.
# The TR-FRET signal was read on an BMG PHERAStar FSX MicroPlate Reader at room temperature using the HTRF optic module (HTRF: excitation: 337 nm, light source: laser, emission A: 665 nm, emission B: 620 nm, integration start: 60 μs, integration time: […]).
# The BMG PHERAStar FSX MicroPlate Reader was used to measure fluorescence intensity at two emission wavelengths—665 nm and 620 nm—and report relative fluorescence units (RFU) for both emissions, as well as a ratio of the emissions (665 nm/620 nm)*10,000. The RFU values were normalized to percent inhibition as follows:
# % inhibition=(((NC−IC)−(compound−IC))/(NC−IC))*100
# where IC (inhibitor control, low signal)= mean signal of 1X Tb-MCl-1+Cy5 Bim peptide+inhibitor control or 100% inhibition of Mcl-1; NC (neutral control, high signal)= mean signal 1X Tb-MCl-1+Cy5 Bim peptide with DMSO only or 0% inhibition An 11-point dose response curve was generated to determine IC50 values (using GenData) based on the following equation:
# Y=Bottom+(Top−Bottom)/(1+10∧((log IC50−X)*HillSlope))
# where Y=% inhibition in the presence of X inhibitor concentration; Top=100% inhibition derived from the IC (mean signal of Mcl-1+inhibitor control); Bottom=0% inhibition derived from the NC (mean signal of Mcl-1+DMSO); Hillslope=Hill coefficient; and IC50=concentration of compound with 50% inhibition in relation to top/neutral control (NC).
# In this assay [L]=8 nM and Kd=10 nM
Compound,AC50 [1],Ki [2],"AC50 ([1]; Homo sapiens, MOLP-8, 2 h)"
"C[C@@H]1[C@@H](C)C/C=C(\F)[C@H](C(=O)N(C)CC2CCCOC2)N2CCC[C@H]2CN2C[C@@]3(CCCc4cc(Cl)ccc43)COc3ccc(cc32)C(=O)NS1(=O)=O (single isomer, unassigned) [Compound 65]",56.7 nM,0.062 nM,–
"C[C@@H]1[C@@H](C)C/C=C(\F)[C@H](C(=O)N(C)C2CCOC2)N2CCC[C@H]2CN2C[C@@]3(CCCc4cc(Cl)ccc43)COc3ccc(cc32)C(=O)NS1(=O)=O (single isomer, unassigned) [Compound 68]",–,0.041 nM,103 nM
"C[C@@H]1[C@@H](C)C/C=C(\F)[C@H](C(=O)N(C)C2CCOC2)N2CCC[C@H]2CN2C[C@@]3(CCCc4cc(Cl)ccc43)COc3ccc(cc32)C(=O)NS1(=O)=O (single isomer, unassigned) [Compound 69]",–,0.049 nM,118 nM
"C[C@@H]1[C@@H](C)C/C=C(\F)[C@H](C(=O)N(C)CC2CCCCO2)N2CCC[C@H]2CN2C[C@@]3(CCCc4cc(Cl)ccc43)COc3ccc(cc32)C(=O)NS1(=O)=O (single isomer, unassigned) [Compound 71]",–,0.066 nM,94.2 nM
"C[C@@H]1[C@@H](C)C/C=C(\F)[C@H](C(=O)N(C)CC2CCCCO2)N2CCC[C@H]2CN2C[C@@]3(CCCc4cc(Cl)ccc43)COc3ccc(cc32)C(=O)NS1(=O)=O (single isomer, unassigned) [Compound 72]",75.2 nM,0.061 nM,–
C[C@@H]1[C@@H](C)C/C=C(\F)[C@H](C(=O)N(C)CCN2CCOCC2)N2CCC[C@H]2CN2C[C@@]3(CCCc4cc(Cl)ccc43)COc3ccc(cc32)C(=O)NS1(=O)=O [Compound 1],–,0.027 nM,80.1 nM
C[C@@H]1[C@@H](C)C/C=C(\F)[C@H](C(=O)N(C)C)N2CCC[C@H]2CN2C[C@@]3(CCCc4cc(Cl)ccc43)COc3ccc(cc32)C(=O)NS1(=O)=O [Compound 3],–,0.129 nM,99.2 nM
C[C@@H]1CN(C(=O)[C@H]2/C(F)=C/C[C@H](C)[C@@H](C)S(=O)(=O)NC(=O)c3ccc4c(c3)N(C[C@@H]3CCCN32)C[C@@]2(CCCc3cc(Cl)ccc32)CO4)CCO1 [Compound 4],–,0.084 nM,71.3 nM
C[C@@H]1[C@@H](C)C/C=C(\F)[C@H](C(=O)N(C)CCCN2CCOCC2)N2CCC[C@H]2CN2C[C@@]3(CCCc4cc(Cl)ccc43)COc3ccc(cc32)C(=O)NS1(=O)=O [Compound 5],–,0.026 nM,111 nM
C[C@@H]1[C@@H](C)C/C=C(\F)[C@H](C(=O)N2CCOCC2)N2CC[C@H]2CN2C[C@@]3(CCCc4cc(Cl)ccc43)COc3ccc(cc32)C(=O)NS1(=O)=O [Compound 7],–,0.223 nM,346 nM
C[C@@H]1[C@@H](C)C/C=C(\F)[C@H](C(=O)N2CCOCC2)N2CCC[C@H]2CN2C[C@@]3(CCCc4cc(Cl)ccc43)COc3ccc(cc32)C(=O)NS1(=O)=O [Compound 8],–,0.074 nM,141 nM
C[C@@H]1[C@@H](C)C/C=C(\F)[C@H](C(=O)N2C[C@H]3C[C@@H]2CO3)N2CCC[C@H]2CN2C[C@@]3(CCCc4cc(Cl)ccc43)COc3ccc(cc32)C(=O)NS1(=O)=O [Compound 9],–,0.13 nM,180 nM
C[C@@H]1[C@@H](C)C/C=C(\F)[C@@H](C(=O)N2C[C@H]3C[C@@H]2CO3)N2CCC[C@H]2CN2C[C@@]3(CCCc4cc(Cl)ccc43)COc3ccc(cc32)C(=O)NS1(=O)=O [Compound 10],–,0.227 nM,285 nM
C[C@@H]1[C@@H](C)C/C=C(\F)[C@H](C(=O)N2CCOC[C@@H]2C)N2CCC[C@H]2CN2C[C@@]3(CCCc4cc(Cl)ccc43)COc3ccc(cc32)C(=O)NS1(=O)=O [Compound 12],–,0.069 nM,196 nM
C[C@@H]1[C@@H](C)C/C=C(\F)[C@H](C(=O)N2CCN(C)CC2)N2CCC[C@H]2CN2C[C@@]3(CCCc4cc(Cl)ccc43)COc3ccc(cc32)C(=O)NS1(=O)=O [Compound 13],–,0.059 nM,297 nM
C[C@@H]1[C@@H](C)C/C=C(\F)[C@H](C(=O)N2CC3(CSC3)C2)N2CCC[C@H]2CN2C[C@@]3(CCCc4cc(Cl)ccc43)COc3ccc(cc32)C(=O)NS1(=O)=O [Compound 15],–,0.162 nM,435 nM
COCCN(CCOC)C(=O)[C@H]1/C(F)=C/C[C@H](C)[C@@H](C)S(=O)(=O)NC(=O)c2ccc3c(c2F)N(C[C@@H]2CCCN21)C[C@@]1(CCCc2cc(Cl)ccc21)CO3 [Compound 17],–,0.032 nM,234 nM
COCCN(CCOC)C(=O)[C@H]1/C(F)=C/C[C@H](C)[C@@H](C)S(=O)(=O)NC(=O)c2cc3c(cc2F)OC[C@]2(CCCc4cc(Cl)ccc42)CN3C[C@@H]2CCCN21 [Compound 18],–,0.05 nM,213 nM
COCCOCCN(C)C(=O)[C@H]1/C(F)=C/C[C@H](C)[C@@H](C)S(=O)(=O)NC(=O)c2ccc3c(c2)N(C[C@@H]2CCCN21)C[C@@]1(CCCc2cc(Cl)ccc21)CO3 [Compound 19],–,0.045 nM,79.3 nM
COCCN(C)C(=O)[C@H]1/C(F)=C/C[C@H](C)[C@@H](C)S(=O)(=O)NC(=O)c2ccc3c(c2)N(C[C@@H]2CCCN21)C[C@@]1(CCCc2cc(Cl)ccc21)CO3 [Compound 21],–,0.075 nM,78 nM
